# pKi: −log10 of the molar value.
# Target: T1, histamine 3 receptor (H3R) (Homo sapiens, UniProt Q9Y5N1)
# T1 construct: expressed in transfected cells; host or cells: CHO cells (HR3-CHO), membrane preparation
# Assay: Binding assay with 3H-(R)α-methylhistamine, competition binding on membranes of the human HR3-CHO cell line
# Conditions: 3H(R)α-Methylhistamine 1 nM, Ki calculated from IC50 by Cheng-Prusoff
# Protocol: Binding Assay with ^3H-(R)α-methylhistamine
# Saturation binding experiments were performed using HR3-CHO membranes prepared as described in Takahashi, K, Tokita, S., Kotani, H. (2003) J. Pharmacol. Exp. Therapeutics 307, 213-218.
# An appropriate amount of membrane (60 to 80 μg protein/well) was incubated with increasing concentrations of ^3H(R)α-Methylhistamine di-hydrochloride (0.10 to 10 nM). Non specific binding was determined using a 200 fold excess of cold (R)α-Methylhistamine dihydrobromide (500 nM final concentration). The incubation was carried out at room temperature (in deep-well plates shaking for three hours). The final volume in each well was 250 μl. The incubation was followed by rapid filtration on GF/B filters (pre-soaked with 100 μl of 0.5% PEI in Tris 50 mM shaking at 200 rpm for two hours). The filtration was made using a cell-harvester and the filter plates were then washed five times with ice cold washing buffer containing 0.5 M NaCl. After harvesting, the plates were dried at 55° C. for 60 min, then we added scintillation fluid (Microscint 40, 40 microl in each well) and the amount of radioactivity on the filter was determined in Packard top-counter after shaking the plates for two hours at 200 rpm at room temperature.
# Binding Buffer: 50 mM Tris-HCl pH 7.4 and 5 mM MgCl2×6H2O pH 7.4. Washing Buffer: 50 mM Tris-HCl pH 7.4 and 5 mM MgCl2×6H2O and 0.5 M NaCl pH 7.4.
# Indirect measurement of affinity of H3R inverse agonists: twelve increasing concentrations (ranging from 10 μM to 0.3 nM) of the selected compounds were always tested in competition binding experiments using membrane of the human HR3-CHO cell line. An appropriate amount of protein, e.g. approximately 500 cpm binding of RAMH at Kd, were incubated for 1 hour at room temperature in 250 μl final volume in 96-well plates in presence of ^3H(R)α-Methylhistamine (1 nM final concentration=Kd). […]
# All compounds were tested at a single concentration in duplicates. […] Ki's were calculated from IC50 based on Cheng-Prusoff equation (Cheng, Y, Prusoff, W H (1973) Biochem Pharmacol 22, 3099-3108).
# T1 sequence (Q9Y5N1 whole entry): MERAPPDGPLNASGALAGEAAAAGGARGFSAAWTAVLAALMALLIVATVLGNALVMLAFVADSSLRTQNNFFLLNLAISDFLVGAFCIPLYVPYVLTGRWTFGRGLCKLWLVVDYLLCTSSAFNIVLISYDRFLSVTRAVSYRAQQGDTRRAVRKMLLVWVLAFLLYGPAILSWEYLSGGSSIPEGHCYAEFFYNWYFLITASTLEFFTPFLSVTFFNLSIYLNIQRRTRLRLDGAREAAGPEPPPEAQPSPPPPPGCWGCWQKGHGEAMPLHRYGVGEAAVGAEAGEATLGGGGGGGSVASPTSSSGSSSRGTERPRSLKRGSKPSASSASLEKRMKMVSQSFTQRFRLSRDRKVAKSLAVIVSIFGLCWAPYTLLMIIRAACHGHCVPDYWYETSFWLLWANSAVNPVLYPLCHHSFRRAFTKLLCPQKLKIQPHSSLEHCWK
row,SMILES,pKi
1,"CCCS(=O)(=O)N[C@H]1CC[C@H](C(=O)N2CCN(C(C)C)CC2)CC1 [Example 1, N-{trans-4-[(4-isopropylpiperazin-1-yl)carbonyl]cyclohexyl}propane-1-sulfonamide]",7.26
2,"COc1ccc(S(=O)(=O)N[C@H]2CC[C@H](C(=O)N3CCN(C(C)C)CC3)CC2)c(OC)c1 [Example 15, N-{trans-4-[(4-isopropyl-piperazin-1-yl)carbonyl]-cyclohexyl}-2,4-dimethoxy-benzenesulfonamide]",7.63
3,"CC(C)N1CCN(C(=O)[C@H]2CC[C@H](N(C(C)C)S(=O)(=O)c3ccc(F)c(Cl)c3)CC2)CC1 [Example 64, 3-chloro-4-fluoro-N-isopropyl-N-[trans-4-(4-isopropyl-piperazine-1-carbonyl)-cyclohexyl]-benzenesulfonamide]",8.05

# Reference: patent publication US8017773B2, “Cyclohexyl sulfonamide derivatives” (Hoffmann-La Roche Inc., priority 2006, dated 2011)
